Assay results: patent US20200101034A1, “RAPID AND CONTROLLED DELIVERY OF COMPOSITIONS WITH RESTORED ENTOURAGE EFFECTS” (RECEPTOR HOLDINGS, INC., priority 2017, published 2020)
Where two headings read alike, the source gives them in different places.

Columns and labels:
[1] = Cannabis/SNAC oral rat pharmacokinetic (PK) study; assay type: in vivo, rats; conditions: for Tmax / AUC(0-t): rat, plasma, po; for Tmax: read-out: time to reach the mean maximum plasma concentration (Tmax); for AUC(0-t): read-out: AUC0-Tlast; for AUC0-Tlast versus the cannabis alone group: rats, oral, same cannabis extract dose in the presence of SNAC (250 mg/kg or 500 mg/kg)
Experimental: Example 4. Summary of cannabis/SNAC oral rat pharmacokinetic (PK) study.
Methods. Animals were dosed on Day 1 and a series of blood samples were collected over a period of 4 hours post dose for pharmacokinetic evaluation. Animals were euthanized following collection of their last blood sample.

[2] = system: study participants; test: Onset and duration of action of orally administered cannabis/SNAC composition (200 mg SNAC), participant-reported euphoria/dysphoria; assay type: in vivo, human; conditions: 200 mg SNAC with cannabis concentrate, oral
Experimental: This study was designed to assess the utility of SNAC in enabling a rapid-acting oral form of cannabis.
Selection of Participants. Six study participants were recruited to ingest cannabis compositions and record the onset, duration, and intensity of cannabis-induced euphoria and/or dysphoria.
(§1) Formulations. The selected cannabis concentrate is commercially available and was provided to participants in an ethanol solution. The concentrate contains 8 mg THC per dose. It was selected because it contains a high percentage of THC, which provides a noticeable effect on user- reported “euphoria”.
(§2) Methods. For the Control experiment, each participant mixed the cannabis concentrate with 15 ml (one tablespoon) of aqueous ethanol, and immediately swallowed the mixture.
(§3) For both the Control experiment and the Test experiment, each participant recorded the time of dose administration, the time of onset of euphoria and/or dysphoria, and the observed level of euphoria and/or dysphoria in fifteen minute intervals for five hours following administration of the cannabis dose. Euphoria and dysphoria were reported using a scale value, in a range from 1-10.

[3] = system: study participants; test: Onset and duration of action of orally administered cannabis/SNAC composition at a low SNAC dose (100 mg); assay type: in vivo, human; conditions: 100 mg SNAC with cannabis concentrate, oral
Experimental: Example 2. […] This study was designed to assess the utility of SNAC in enabling a rapid-acting oral form of cannabis at a low dose.
Selection of Participants. Three study participants were recruited to ingest cannabis compositions and record the onset, duration, and intensity of cannabis-induced euphoria and/or dysphoria.
as §1, §2, §3
Results. The results are combined with the data from Example 1 and are reported for all participants in FIG. 8.

Compound	Tmax ([1]; 25 mg/kg) [h]	Tmax ([1]; 50 mg/kg) [h]	AUC(0-t) [1] [ng·h/mL]	AUC0-Tlast versus the cannabis alone group [1]	Tmax [1] [h]	effect of the absorption enhancer on the duration of action of cannabis [2]	effect of the absorption enhancer on the duration of action of cannabis [3]
CCCCCc1cc(O)c2c(c1)OC(C)(C)[C@@H]1CCC(C)=C[C@@H]21 [THC, delta-9-tetrahydrocannabinol]	1	2	171 to 1260	comparable			
C=C(C)[C@@H]1CCC(C)=C[C@H]1c1c(O)cc(CCCCC)cc1O [CBD, cannabidiol]			13.2 to 382	comparable	0.25 to 1		
O=C([O-])CCCCCCCNC(=O)c1ccccc1O.[Na+] [SNAC, sodium N-[8-(2-hydroxybenzoyl)amino] caprylate]						no effect	no effect
